Measurements from US20050112573A1, “Method of detecting toxic substance” (priority 2001, published 2005).

Test system: yeast genes (level of expressed mRNA)
Experiment: DNA chip analysis of expressed mRNA of yeast genes after 2 h culture with a toxic chemical substance
Format: cell-based, Saccharomyces cerevisiae S288C
Settings: for The level of expressed mRNA in the presence of chemical substance/ (ratio to absence of chemical substance): stress protein genes, DNA chip; for The level of expressed mRNA in the presence of chemical substance/ in its absence, gene YDL078C: yeast gene YDL078C
Procedure: Yeast (Saccharomyces cerevtisiae S288C (α SUC2mal mel gap2 CUP1)) were cultured at 25° C. on YPD medium (yeast extract 1%, polypepton 2%, glucose 2%). One of toxic chemical substances was added to the cell at logarithmic growth phase, and the cell was further cultured for two hours. Cell was cultured without any chemical substance in the same condition, and was used as control. Concentrations of the chemical substances were defined to inhibit the growth of the yeast but not lead to death.
After the completion of cultivation, the culture was centrifuged to collect the cells. To the cells, sodium acetate buffer (50 mM sodium acetate, 10 mM EDTA, 1% SDS) was added, and the mixture was shaken at 65° C. for five minutes, followed by returning to room temperature, and obtaining the supernatant, which procedure was repeated two times. To the supernatant, ½ amount of a solution of phenol/chloroform was added, and the mixture was centrifuged to give a supernatant, which was added with an equal amount of chloroform, and the mixture was centrifuged to give a supernatant. To the supernatant, an equal amount of isopropanol containing 0.3 M sodium acetate was added, and the mixture was allowed to stand at room temperature for 30 minutes, after which the mixture was centrifuged to give a sediment of the whole RNAs. Seventy % ethanol was added to the sediment, and the mixture was again centrifuged to give a sediment, which was then dried and dissolved in water. mRNA was isolated from the whole RNAs as followings. In view of the fact that a poly A chain is attached to the 3′ terminus of mRNA, a polynucleotide having a poly T structure which was immobilized on the surface of latex beads was used to trap the mRNA, and then the mRNA was washed and eluted with spine column (Oligotex-dT30<Super>mRNA Purification Kit, Takara). Reverse transcription of the mRNA was conducted with a reverse transcriptase (Super Script II Reverse Transcriptase; catalogue No. 18064-014, GibcoBRL) using fluorescence-labeled nucleotides to give cDNAs that were introduced with Cy3-dUTP or Cy5-dUTP during the reverse transcription.
The labeled cDNAs were dissolved in TE buffer (10 mM Tris-HCl/1 mM EDTA, pH8.0), and the solution was dropped on the DNA chip containing the whole genes of yeast (DNA Chip Research Inc. Japan) so that the cDNAs were hybridized on the DNA chip at 65° C. for over 12 hours. The fluoresces intensity of the DNA chip was read with a scanner, and the ratio relative to the fluorescence intensity resulting from the absence of chemical substance was estimated as the following, which is shown in Tables 1 to 9: [formula]
In the Tables, “Intensity” indicated in the rightmost column is a value of the level of expressed mRNA of each gene in control cells as divided by the average level of the expressions of the whole genes.

COc1cc(CNC(=O)CCCCC=CC(C)C)ccc1O [(12), 8-methyl-N-vanillyl-6-nonenamide]
1.1: level of expressed mRNA in the presence of chemical substance/in its absence (gene YPR006C) | The level of expressed mRNA in the presence of chemical substance/absence: YPR174C (gene YPR174C) | The level of expressed mRNA in the presence of chemical substance/ (ratio to absence of chemical substance) (yeast gene YBL093C) | The level of expressed mRNA in the presence of chemical substance/ (ratio to absence), gene YBR251W (yeast gene YBR251W, mitochondria-located protein genes, 2 h culture with chemical) | The level of expressed mRNA in the presence of chemical substance/ (in its absence), gene YBR298C (yeast gene YBR298C, ratio of DNA chip fluorescence intensity to that without chemical substance) | The level of expressed mRNA in the presence of chemical substance/ (ratio to absence), gene YCR046C (yeast gene YCR046C, mitochondria-located protein genes, 2 h culture with chemical) | The level of expressed mRNA in the presence of chemical substance/The level of expressed mRNA in the absence of chemical substance (yeast gene YCR071C) | The level of expressed mRNA in the presence of chemical substance/ (ratio to absence), gene YCR083W (yeast gene YCR083W, mitochondria-located protein genes, 2 h culture with chemical) | The level of expressed mRNA in the presence of chemical substance/ (ratio to absence of chemical substance) (yeast gene YCR083W)
1.6: The level of expressed mRNA in the presence of chemical substance/The level of expressed mRNA in the absence of chemical substance (yeast gene YBL005W-A) | The level of expressed mRNA in the presence of chemical substance/The level of expressed mRNA in the absence of chemical substance (yeast gene YBL041W)
0.8: The level of expressed mRNA in the presence of chemical substance/absence: YPL151C (gene YPL151C) | The level of expressed mRNA in the presence of chemical substance/absence: YPL180W (gene YPL180W) | The level of expressed mRNA in the presence of chemical substance/absence: YPL221W (gene YPL221W) | The level of expressed mRNA in the presence of chemical substance/absence: YPL260W (gene YPL260W) | The level of expressed mRNA in the presence of chemical substance/absence: YPR061C (gene YPR061C) | The level of expressed mRNA in the presence of chemical substance/absence: YPR146C (gene YPR146C) | The level of expressed mRNA in the presence of chemical substance/absence: YPR172W (gene YPR172W) | The level of expressed mRNA in the presence of chemical substance/ (ratio to absence of chemical substance) (yeast gene YBR044C) | The level of expressed mRNA in the presence of chemical substance/The level of expressed mRNA in the absence of chemical substance (yeast gene YCL027W) | The level of expressed mRNA in the presence of chemical substance/The level of expressed mRNA in the absence of chemical substance (yeast gene YCR004C) | The level of expressed mRNA in the presence of chemical substance/ in its absence, gene YDL078C (energy system protein genes, 2 h culture with the chemical, ratio to control without chemical) | The level of expressed mRNA in the presence of chemical substance/ in its absence, gene YDL078C (ratio of DNA chip fluorescence intensity to that without chemical substance) | The level of expressed mRNA in the presence of chemical substance/ (in its absence), gene YDL215C (yeast gene YDL215C, ratio of DNA chip fluorescence intensity to that without chemical substance)
3.1: The level of expressed mRNA in the presence of chemical substance/The level of expressed mRNA in the absence of chemical substance (yeast gene YBL078C)
0.5: The level of expressed mRNA in the presence of chemical substance/absence: YPR169W (gene YPR169W)
1.4: The level of expressed mRNA in the presence of chemical substance/The level of expressed mRNA in the absence of chemical substance (yeast gene YDR055W)
1.2: level of expressed mRNA in the presence of chemical substance/in its absence (gene YOR347C) | level of expressed mRNA in the presence of chemical substance/in its absence (gene YPR026W) | The level of expressed mRNA in the presence of chemical substance/absence: YPR148C (gene YPR148C) | The level of expressed mRNA in the presence of chemical substance/The level of expressed mRNA in the absence of chemical substance (yeast gene YBR214W) | The level of expressed mRNA in the presence of chemical substance/The level of expressed mRNA in the absence of chemical substance (yeast gene YDL008W)
0.9: The level of expressed mRNA in the presence of chemical substance / the level in the absence of chemical substance, yeast gene YPL138C (gene YPL138C, DNA chip fluorescence ratio to control without chemical, 2 hours culture with chemical, growth-inhibiting non-lethal concentration) | The level of expressed mRNA in the presence of chemical substance/absence: YPL152W (gene YPL152W) | The level of expressed mRNA in the presence of chemical substance/absence: YPL249C (gene YPL249C) | level of expressed mRNA in the presence of chemical substance/in its absence (gene YPL265W) | The level of expressed mRNA in the presence of chemical substance/absence: YPR049C (gene YPR049C) | The level of expressed mRNA in the presence of chemical substance/absence: YPR093C (gene YPR093C) | The level of expressed mRNA in the presence of chemical substance/The level of expressed mRNA in the absence of chemical substance (yeast gene YBL043W) | The level of expressed mRNA in the presence of chemical substance/The level of expressed mRNA in the absence of chemical substance (yeast gene YDL238C)
0.6: The level of expressed mRNA in the presence of chemical substance/absence: YPL188W (gene YPL188W) | The level of expressed mRNA in the presence of chemical substance/absence: YPR150W (gene YPR150W) | The level of expressed mRNA in the presence of chemical substance/absence: YPR158W (gene YPR158W)
1.0: level of expressed mRNA in the presence of chemical substance/in its absence (gene YPL017C) | The level of expressed mRNA in the presence of chemical substance/absence: YPL150W (gene YPL150W) | The level of expressed mRNA in the presence of chemical substance/The level of expressed mRNA in the absence of chemical substance (yeast gene YAR010C) | The level of expressed mRNA in the presence of chemical substance/ (in its absence), gene YBR036C (yeast gene YBR036C, ratio of DNA chip fluorescence intensity to that without chemical substance) | The level of expressed mRNA in the presence of chemical substance/ in its absence, gene YDL067C (yeast gene YDL067C, energy system protein genes, 2 h culture with the chemical, ratio to control without chemical) | The level of expressed mRNA in the presence of chemical substance/ (ratio to absence), gene YDL067C (yeast gene YDL067C, mitochondria-located protein genes, 2 h culture with chemical)
0.7: The level of expressed mRNA in the presence of chemical substance/absence: YPL005W (gene YPL005W) | The level of expressed mRNA in the presence of chemical substance / the level in the absence of chemical substance, yeast gene YPL107W (gene YPL107W, DNA chip fluorescence ratio to control without chemical, 2 hours culture with chemical, growth-inhibiting non-lethal concentration) | The level of expressed mRNA in the presence of chemical substance/absence: YPL168W (gene YPL168W) | The level of expressed mRNA in the presence of chemical substance/absence: YPL225W (gene YPL225W) | The level of expressed mRNA in the presence of chemical substance/ (ratio to absence), gene YBL038W (yeast gene YBL038W, mitochondria-located protein genes, 2 h culture with chemical) | The level of expressed mRNA in the presence of chemical substance/ (ratio to absence), gene YBR122C (yeast gene YBR122C, mitochondria-located protein genes, 2 h culture with chemical)
1.3: level of expressed mRNA in the presence of chemical substance/in its absence (gene YOR344C) | The level of expressed mRNA in the presence of chemical substance/The level of expressed mRNA in the absence of chemical substance (yeast gene YCR088W)
1.5: The level of expressed mRNA in the presence of chemical substance/The level of expressed mRNA in the absence of chemical substance (yeast gene YCL020W)
